Reference: publication PMC4843002, “Identification of pyrazolopyridazinones as PDEδ inhibitors” (Nature Communications, 2016)

Assays:
[1] = target: T1, CRF1 (h) (Homo sapiens, UniProt P34998); assay: Cerep binding, agonist radioligand; conditions: read-out: % Inhibition of Control Specific Binding
T1 construct: purchased Eurofins Pharma Discovery Services (CEREP diversity panel)

[2] = tested on: Erk phosphorylation; assay: western blot, Erk phosphorylation in PANC-1
Experimental: To examine whether PDEδ inhibition by Deltarasin and Deltazinone 1 downregulates the signal transduction via these pathways, we examined the phosphorylation of extracellular signal regulated kinase (Erk) and S6 Ribosomal Protein (S6P) in the oncogenic KRas-dependent Panc-Tu-1 and KRas-independent PANC-1 cells. […] Cells were lysed with RIPA-buffer (20 mM Tris pH 7.5, 150 mM NaCl, 0.5 mM Na2 EDTA, 1 % sodium deoxycholate, 0.1% sodium dodecyl sulfate, 1% IGEPAL supplemented with Complete Mini EDTA-free protease inhibitor (Roche Applied Science) and 1% phosphatase inhibitor cocktail 2 and 3 (P5726 and P0044, Sigma Aldrich), scraped off after 5 min on ice and centrifuged at 14,000g for 20 min at 4 °C. SDS–polyacrylamide gel electrophoresis was carried out with 10–25 μg of whole-cell lysate from each sample. The gels were blotted onto polyvinylidene difluoride membrane (Millipore) and blocked for 1 h at room temperature. […] Blots were scanned on a LI-COR Odyssey imaging system.
Western blots were quantified using ImageJ. The background of the blots was subtracted by applying the rolling ball subtraction with a radius of 50 pixels. Afterwards the integrated intensity of the bands was measured.

[3] = tested on: BZD (central); assay: Cerep binding, agonist radioligand; conditions: 5 µM
[4] = target: T2, phosphatase 1B (h) (PTP1B) (Homo sapiens, UniProt P18031); assay: Cerep enzyme and cell-based assays; format: biochemical; conditions: read-out: % Inhibition of Control Values
T2 construct: Eurofins Pharma Discovery Services (CEREP diversity panel, outsourced assay)
T2 sequence (P18031 whole entry): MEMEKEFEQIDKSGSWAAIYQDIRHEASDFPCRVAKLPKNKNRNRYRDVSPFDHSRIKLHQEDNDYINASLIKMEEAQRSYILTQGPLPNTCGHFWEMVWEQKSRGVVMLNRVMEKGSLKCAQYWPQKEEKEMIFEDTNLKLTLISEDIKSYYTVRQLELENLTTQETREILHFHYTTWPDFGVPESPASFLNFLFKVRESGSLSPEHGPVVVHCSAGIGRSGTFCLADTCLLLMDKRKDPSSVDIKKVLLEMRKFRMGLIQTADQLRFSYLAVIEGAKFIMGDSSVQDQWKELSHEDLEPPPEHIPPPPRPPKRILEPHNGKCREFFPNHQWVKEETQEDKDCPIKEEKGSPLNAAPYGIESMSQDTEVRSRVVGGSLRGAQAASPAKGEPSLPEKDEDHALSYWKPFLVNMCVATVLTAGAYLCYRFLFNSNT

[5] = tested on: Ca2+ channel (L, dihydropyridine site); assay: Cerep binding, antagonist radioligand; conditions: 5 µM
[6] = tested on: opioid (non-selective); assay: Cerep binding, antagonist radioligand; conditions: 5 µM
[7] = tested on: Y (non-selective); assay: Cerep binding, agonist radioligand; conditions: 5 µM
[8] = target: T3, 5-HT transporter (h) (Homo sapiens, UniProt P31645); assay: Cerep binding, antagonist radioligand; conditions: read-out: % Inhibition of Control Specific Binding
T3 construct: purchased Eurofins Pharma Discovery Services (CEREP diversity panel)
T3 sequence (P31645 whole entry): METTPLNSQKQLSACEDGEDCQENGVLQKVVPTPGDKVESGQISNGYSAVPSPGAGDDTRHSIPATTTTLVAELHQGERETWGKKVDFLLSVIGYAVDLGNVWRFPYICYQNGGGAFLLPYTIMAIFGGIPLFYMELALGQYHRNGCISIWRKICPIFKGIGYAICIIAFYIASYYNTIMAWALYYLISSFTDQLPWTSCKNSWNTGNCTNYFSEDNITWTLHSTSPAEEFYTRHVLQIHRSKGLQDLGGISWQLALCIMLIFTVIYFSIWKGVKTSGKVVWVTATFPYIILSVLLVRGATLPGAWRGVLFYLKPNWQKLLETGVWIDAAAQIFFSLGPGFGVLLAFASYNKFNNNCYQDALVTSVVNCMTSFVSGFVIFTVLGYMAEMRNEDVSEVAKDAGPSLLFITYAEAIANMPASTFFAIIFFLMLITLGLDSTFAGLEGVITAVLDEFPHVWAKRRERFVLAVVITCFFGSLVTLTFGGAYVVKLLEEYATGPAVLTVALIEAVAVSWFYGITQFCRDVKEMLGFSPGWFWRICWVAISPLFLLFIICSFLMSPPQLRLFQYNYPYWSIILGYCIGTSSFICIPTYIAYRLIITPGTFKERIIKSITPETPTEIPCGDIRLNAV

[9] = target: T4, GABA transaminase (Rattus norvegicus, UniProt P50554); assay: Cerep enzyme and cell-based assays; format: biochemical; conditions: read-out: % Inhibition of Control Values
T4 construct: Eurofins Pharma Discovery Services (CEREP diversity panel, outsourced assay)

[10] = target: T5, TRH1 (h) (Homo sapiens, UniProt P34981); assay: Cerep binding, agonist radioligand; conditions: read-out: % Inhibition of Control Specific Binding
T5 construct: purchased Eurofins Pharma Discovery Services (CEREP diversity panel)
T5 sequence (P34981 whole entry): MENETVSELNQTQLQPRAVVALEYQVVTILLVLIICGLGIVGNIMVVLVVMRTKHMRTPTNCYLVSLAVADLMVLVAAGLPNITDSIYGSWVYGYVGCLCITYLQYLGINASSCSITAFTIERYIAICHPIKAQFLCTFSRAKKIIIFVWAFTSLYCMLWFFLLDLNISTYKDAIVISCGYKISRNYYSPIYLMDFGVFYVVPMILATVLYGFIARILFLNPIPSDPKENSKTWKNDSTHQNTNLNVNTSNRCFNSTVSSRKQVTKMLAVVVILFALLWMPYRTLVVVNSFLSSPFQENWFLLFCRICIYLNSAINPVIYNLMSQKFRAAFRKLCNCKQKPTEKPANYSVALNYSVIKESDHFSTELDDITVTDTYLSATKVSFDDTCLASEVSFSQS

[11] = target: T6, PPARgamma (h) (Homo sapiens, UniProt P37231); assay: Cerep binding, agonist radioligand; conditions: read-out: % Inhibition of Control Specific Binding
T6 construct: purchased Eurofins Pharma Discovery Services (CEREP diversity panel)
T6 sequence (P37231 whole entry): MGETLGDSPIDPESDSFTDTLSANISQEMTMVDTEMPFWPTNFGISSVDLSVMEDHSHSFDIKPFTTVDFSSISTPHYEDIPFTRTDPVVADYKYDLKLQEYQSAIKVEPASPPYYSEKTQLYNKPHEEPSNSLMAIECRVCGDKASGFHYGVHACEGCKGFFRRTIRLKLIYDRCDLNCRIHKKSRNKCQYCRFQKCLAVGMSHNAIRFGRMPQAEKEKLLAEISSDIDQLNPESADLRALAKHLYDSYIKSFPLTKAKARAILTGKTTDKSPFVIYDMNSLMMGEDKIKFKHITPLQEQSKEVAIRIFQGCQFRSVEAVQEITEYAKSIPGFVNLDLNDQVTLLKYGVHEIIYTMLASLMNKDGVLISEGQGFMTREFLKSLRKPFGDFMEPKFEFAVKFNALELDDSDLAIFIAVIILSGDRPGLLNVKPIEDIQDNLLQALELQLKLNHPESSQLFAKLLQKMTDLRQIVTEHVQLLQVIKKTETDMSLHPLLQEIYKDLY

[12] = tested on: ATPase (Na+/K+); assay: Cerep enzyme and cell-based assays; format: biochemical; conditions: 5 µM
[13] = target: T7, PKCalpha (h) (Homo sapiens, UniProt P17252); assay: Cerep enzyme and cell-based assays; format: biochemical; conditions: read-out: % Inhibition of Control Values
T7 construct: Eurofins Pharma Discovery Services (CEREP diversity panel, outsourced assay)

[14] = tested on: Capan-1 cells; assay: RTCA growth profile; format: cell-based, human; conditions: Capan-1, doses up to 24 μM
Experimental: (§1) RTCA was performed using 16-well E-plates on the Dual Plate xCELLigence instrument (Roche Applied Science, Indianapolis, IN). This system measures a dimensionless parameter called cell index, which evaluates the ionic environment at an electrode/solution interface and integrates information on cell number. Depending on the cell line 5 × 10^3–1 × 10^4 cells were plated in each well of the 16-well plates in 200 μl of cell culture medium. After seeding, cells were allowed to settle for 30 min at room temperature before being inserted into the xCELLigence instrument in a humidified incubator at 37 °C with 10% CO2. For RTCA experiments assaying cells stably expressing the inducible shRNA transgene, cells were seeded onto the E-plates in medium supplemented with 200 ng ml^−1 doxycycline. […] The small-molecule inhibitors were added at indicated time points and in the indicated concentrations. […] All assays were performed in duplicates. The cell index was normalized to 1 at the time point of drug administration.

[15] = tested on: MIA PaCa-2 cells; assay: RTCA growth profile; format: cell-based, human; conditions: MIA PaCa-2, doses higher than 3 μM
Experimental: as §1

[16] = target: T8, MC4 (h) (Homo sapiens, UniProt P32245); assay: Cerep binding, agonist radioligand; conditions: read-out: % Inhibition of Control Specific Binding
T8 construct: purchased Eurofins Pharma Discovery Services (CEREP diversity panel)
T8 sequence (P32245 whole entry): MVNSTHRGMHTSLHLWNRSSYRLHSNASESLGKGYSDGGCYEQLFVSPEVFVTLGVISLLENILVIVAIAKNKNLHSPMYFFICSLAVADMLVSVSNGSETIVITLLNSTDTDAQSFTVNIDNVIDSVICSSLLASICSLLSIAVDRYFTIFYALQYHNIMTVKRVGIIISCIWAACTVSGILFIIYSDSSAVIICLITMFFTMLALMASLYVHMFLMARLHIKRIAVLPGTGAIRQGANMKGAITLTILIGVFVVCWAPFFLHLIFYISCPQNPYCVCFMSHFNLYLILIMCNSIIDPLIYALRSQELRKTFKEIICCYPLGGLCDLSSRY

[17] = tested on: COMT (catechol-O-methyl transferase); assay: Cerep enzyme and cell-based assays; format: biochemical; conditions: 5 µM
[18] = tested on: Panc-Tu-I cells; assay: long-term time-lapse microscopy; conditions: 72 h, 5 μM Deltarasin or 10 μM Deltazinone 1
[19] = tested on: Cl- channel (GABA-gated); assay: Cerep binding, antagonist radioligand; conditions: 5 µM
[20] = target: T9, interaction between mCitrine-KRas and mCherry-PDEδ (Homo sapiens, UniProt O43924); assay: FLIM-FRET, mCitrine-KRas/mCherry-PDEδ in MDCK cells after Bryostatin; format: cell-based, canine; conditions: 5 μM inhibitor after 1 μM Bryostatin-1, MDCK cells
T9 construct: expressed in transfected cells; host or cells: MDCK cells, transient transfection
T9 sequence (O43924 whole entry): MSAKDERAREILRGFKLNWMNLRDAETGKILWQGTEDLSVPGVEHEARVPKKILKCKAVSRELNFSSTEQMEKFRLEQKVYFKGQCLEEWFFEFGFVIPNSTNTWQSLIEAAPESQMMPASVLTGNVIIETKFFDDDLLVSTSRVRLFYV
From the text: To measure whether both inhibitors also affect the interaction of KRas with PDEδ, MDCK cells were transiently transfected with mCitrine-KRas and mCherry-PDEδ. […] To increase the fraction of KRas that interacts with PDEδ, the Protein Kinase C (PKC) activator Bryostatin, which induces serine (S181) phosphorylation on KRas[17], was applied, resulting in a reduced electrostatic interaction with the PM and increased cytosolic pool of mCitrine-KRas.
Fluorescence lifetime images were acquired using a confocal laser-scanning microscope (FV1000, Olympus) equipped with a time-correlated single-photon counting module (LSM Upgrade Kit, Picoquant). For detection of the donor (mCitrine), the sample was excited using a 470-nm diode laser (LDH 470, Picoquant) at a 36-MHz repetition frequency. […] Photons were detected using a single-photon counting avalanche photodiode (PDM Series, MPD) and timed using a single-photon counting module (PicoHarp 300, Picoquant).
Intensity thresholds were applied to segment the cells from the background fluorescence. Data were analysed via global analysis[23] to obtain images of the molar fraction (α) of interacting mCitrine-Rheb with mCherry-PDEδ. […] Dose–response relationships were determined by plotting obtained α per addition, using equation:

[21] = target: T10, HDAC11 (h) (Homo sapiens, UniProt Q96DB2); assay: Cerep enzyme and cell-based assays; format: biochemical; conditions: read-out: % Inhibition of Control Values
T10 construct: Eurofins Pharma Discovery Services (CEREP diversity panel, outsourced assay)

[22] = target: T11, HDAC6 (h) (Homo sapiens, UniProt Q9UBN7); assay: Cerep enzyme and cell-based assays; format: biochemical; conditions: read-out: % Inhibition of Control Values
T11 construct: Eurofins Pharma Discovery Services (CEREP diversity panel, outsourced assay)

[23] = tested on: Panc-Tu-I; assay: CellTiter-Glo cell viability; format: cell-based, human
Experimental: Biochemical and Pharmacological Assays
Determination of cell viability using CellTiter-Glo®
Cells were seeded on day 1 at 500 cells per well to assure assay linearity and optimal signal intensity. After incubation for 24h in humidified incubator at 37°C, 5% CO2, compounds / DMSO were added at different concentrations. Cells were further incubated for 72 h at 37°C and 5% CO2. Cells treated with the compound vehicle (DMSO) […].
At day 5 the CellTiter-Glo® Reagent was prepared according to the instructions of the manufacturer (Promega): The Reagent was mixed 1:1 with cell culture medium.
Thereon, mixture and assay plates were equilibrated at room temperature for 20 min.
Equal volumes of the reagent-medium-mixture were added to the volume of culture medium present in each well. The plates were mixed at 200 rpm for 2 minutes on an orbital shaker and afterwards incubated at room temperature for 10 minutes.
Following incubation the luminescence was recorded on a Victor microplate reader (Perkin Elmer) using a 200 ms integration time. The data was analyzed with Excel using the XLFIT Plugin (dose response Fit 205) for IC50-determination.
As quality control the Z´ -factor was calculated from 16 positive and negative control values. Only assay results showing a Z´ -factor ≥ 0.5 were used for further analysis.

[24] = target: T12, MAO-A (h) (Homo sapiens, UniProt P21397); assay: Cerep enzyme and cell-based assays; format: biochemical; conditions: read-out: % Inhibition of Control Values
T12 construct: Eurofins Pharma Discovery Services (CEREP diversity panel, outsourced assay)
T12 sequence (P21397 whole entry): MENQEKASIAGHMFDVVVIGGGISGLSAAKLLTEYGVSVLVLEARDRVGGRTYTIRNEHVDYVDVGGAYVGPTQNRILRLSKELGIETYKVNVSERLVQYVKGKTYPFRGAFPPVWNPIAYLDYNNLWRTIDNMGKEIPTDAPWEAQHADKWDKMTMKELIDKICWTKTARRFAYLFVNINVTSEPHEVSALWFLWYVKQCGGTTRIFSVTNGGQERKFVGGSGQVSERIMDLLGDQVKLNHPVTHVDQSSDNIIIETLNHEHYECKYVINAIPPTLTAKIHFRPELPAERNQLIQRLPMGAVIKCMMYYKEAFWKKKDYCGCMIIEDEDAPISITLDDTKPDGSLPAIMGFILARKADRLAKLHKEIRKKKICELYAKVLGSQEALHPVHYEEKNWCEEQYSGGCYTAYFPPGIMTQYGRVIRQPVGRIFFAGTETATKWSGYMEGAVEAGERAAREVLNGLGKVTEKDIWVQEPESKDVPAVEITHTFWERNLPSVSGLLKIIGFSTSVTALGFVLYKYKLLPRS

[25] = target: T13, MAO-B (h) recombinant enzyme (Homo sapiens, UniProt P27338); assay: Cerep enzyme and cell-based assays; format: biochemical; conditions: read-out: % Inhibition of Control Values
T13 construct: Eurofins Pharma Discovery Services (CEREP diversity panel, outsourced assay)

[26] = target: T14, tyrosine hydroxylase (Rattus norvegicus, UniProt P04177); assay: Cerep enzyme and cell-based assays; format: biochemical; conditions: read-out: % Inhibition of Control Values
T14 construct: Eurofins Pharma Discovery Services (CEREP diversity panel, outsourced assay)

[27] = target: T15, sirtuin 1 (h) (inhibitor effect) (Homo sapiens, UniProt Q96EB6); assay: Cerep enzyme and cell-based assays; format: biochemical; conditions: read-out: % Inhibition of Control Values
T15 construct: Eurofins Pharma Discovery Services (CEREP diversity panel, outsourced assay)
T15 sequence (Q96EB6 whole entry): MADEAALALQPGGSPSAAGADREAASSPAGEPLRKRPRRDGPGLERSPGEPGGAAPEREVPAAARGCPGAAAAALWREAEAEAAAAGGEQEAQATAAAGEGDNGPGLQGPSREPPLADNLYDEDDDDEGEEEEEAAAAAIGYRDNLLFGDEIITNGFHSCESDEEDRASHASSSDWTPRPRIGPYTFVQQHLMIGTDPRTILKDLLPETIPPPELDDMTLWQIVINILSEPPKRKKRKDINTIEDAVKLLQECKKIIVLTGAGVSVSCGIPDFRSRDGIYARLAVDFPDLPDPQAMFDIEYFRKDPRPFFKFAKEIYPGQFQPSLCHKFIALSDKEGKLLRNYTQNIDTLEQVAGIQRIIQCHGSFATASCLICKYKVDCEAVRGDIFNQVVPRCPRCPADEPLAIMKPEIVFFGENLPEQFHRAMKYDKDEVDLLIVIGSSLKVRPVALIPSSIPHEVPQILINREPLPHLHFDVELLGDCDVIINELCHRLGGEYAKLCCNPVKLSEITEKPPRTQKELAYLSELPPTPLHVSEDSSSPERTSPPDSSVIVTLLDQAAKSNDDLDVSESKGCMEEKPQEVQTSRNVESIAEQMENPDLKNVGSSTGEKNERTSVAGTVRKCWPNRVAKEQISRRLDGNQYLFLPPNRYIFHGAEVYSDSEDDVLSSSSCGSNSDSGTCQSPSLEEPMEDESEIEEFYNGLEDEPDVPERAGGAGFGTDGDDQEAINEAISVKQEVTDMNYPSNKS

[28] = target: T16, CENP-E (h) (Homo sapiens, UniProt Q02224); assay: Cerep enzyme and cell-based assays; format: biochemical; conditions: read-out: % Inhibition of Control Values
T16 construct: Eurofins Pharma Discovery Services (CEREP diversity panel, outsourced assay)

[29] = target: T17, acetylcholinesterase (h) (Homo sapiens, UniProt P22303); assay: Cerep enzyme and cell-based assays; format: biochemical; conditions: read-out: % Inhibition of Control Values
T17 construct: Eurofins Pharma Discovery Services (CEREP diversity panel, outsourced assay)

T1 sequence (P34998 24-415): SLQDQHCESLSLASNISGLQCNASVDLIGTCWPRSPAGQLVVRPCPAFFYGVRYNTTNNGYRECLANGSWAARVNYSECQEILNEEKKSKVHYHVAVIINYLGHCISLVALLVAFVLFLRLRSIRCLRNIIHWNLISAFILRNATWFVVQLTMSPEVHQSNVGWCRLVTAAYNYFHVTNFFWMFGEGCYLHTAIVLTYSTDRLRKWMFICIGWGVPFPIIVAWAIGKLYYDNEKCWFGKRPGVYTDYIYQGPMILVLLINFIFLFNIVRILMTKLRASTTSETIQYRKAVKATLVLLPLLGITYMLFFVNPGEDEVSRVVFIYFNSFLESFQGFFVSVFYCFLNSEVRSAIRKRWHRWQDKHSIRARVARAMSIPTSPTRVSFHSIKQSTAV

## Cc1ccc(-n2nc3c(=O)n(CCCC(=O)NCC(C)c4ccccc4)nc(C)c3c2C)cc1 (centres unmarked) [2k]
[1]
  inhibition at 5 µM: -43%
[2]; PANC-1, 20 μM, longer incubation times (>3 h)
  EGF-induced Erk phosphorylation: remained unaffected
[2]; PANC-1, 1 h, 5 μM Deltarasin or 20 μM Deltazinone 1, 5 min EGF
  EGF-induced Erk phosphorylation: did not significantly affect
[3]
  % Inhibition of Control Specific Binding: -24%
[4]
  inhibition at 5 µM: 2%
[5]
  % Inhibition of Control Specific Binding: -2%
[6]
  % Inhibition of Control Specific Binding: 42%
[7]
  % Inhibition of Control Specific Binding: -19%
[8]
  inhibition at 5 µM: -8%
[9]
  inhibition at 5 µM: 0%
[10]
  inhibition at 5 µM: 7%
[11]
  inhibition at 5 µM: -14%
[12]
  % Inhibition of Control Values: 7%
[13]
  inhibition at 5 µM: 7%
[14]
  effect on growth: strong growth inhibition but not cell death
[15]
  time after administration at which decreasing cell indices indicated cell death: ~40 h
[16]
  inhibition at 5 µM: -1%
[17]
  % Inhibition of Control Values: 11%
[18]
  cell death in time-lapse microscopy: cell death
[19]
  % Inhibition of Control Specific Binding: 17%

## c1ccc(Cn2c(-c3ccc(OC[C@H](C4CCNCC4)n4c(-c5ccccc5)nc5ccccc54)cc3)nc3ccccc32)cc1 [Deltarasin, reference compound]
[1]
  inhibition at 5 µM: 34%
[20]
  interaction between mCitrine-KRas and mCherry-PDEδ: abolished the interaction
[21]
  inhibition at 5 µM: 37%
[22]
  inhibition at 5 µM: 3%
[3]
  % Inhibition of Control Specific Binding: -17%
[5]
  % Inhibition of Control Specific Binding: 87%
[23]; Homo sapiens, 72 h, read-out: IC50 anti-proliferative activity
  IC50: 4.83 µM
[23]; Panc-Tu-I, CellTiter-Glo, n = 14
  Hill coefficient: -5.3
[6]
  % Inhibition of Control Specific Binding: 12%
[7]
  % Inhibition of Control Specific Binding: 10%
[24]
  inhibition at 5 µM: 1%
[25]
  inhibition at 5 µM: 7%
[26]
  inhibition at 5 µM: 24%
[8]
  inhibition at 5 µM: 39%
[10]
  inhibition at 5 µM: 42%
[11]
  inhibition at 5 µM: 21%
[27]
  inhibition at 5 µM: 4%
[28]
  inhibition at 5 µM: 6%
[13]
  inhibition at 5 µM: 66%
[16]
  inhibition at 5 µM: 32%
[17]
  % Inhibition of Control Values: 4%
[18]
  cell death in time-lapse microscopy: cell death
[19]
  % Inhibition of Control Specific Binding: 2%
[29]
  inhibition at 5 µM: 9%
